Where “and” joins values, the source holds several entries; their conditions need not be identical. Equal values may be shown once. Entries after “also recorded” stand apart in the source; their conditions may differ.
Tests used:
[1] = system: lateral perforant path EPSPs in hippocampal slices; test: Lateral perforant path EPSPs in hippocampal slices; type: cell-based, Sprague-Dawley rats
Description: Hippocamlpal slice preparation: Hippocampal slices were prepared from male Sprague-Dawley rats, approximately 4-6 weeks of age. Rats were anesthetized with halothane and then sacrificed via decapitation. The brain was quickly removed and placed in icy, oxygenated artificial cerebrospinal fluid (ACSF) of the following composition for dissection (in mM): 124 NaCl, 3 KCl 1.25 KH2PO4, 5 MgSO4, 3.4 CaCl2, 10 D-glucose, 26 NaHCO3. A tissue block containing the hippocampus and surrounding tissue was prepared and glued to the stage of a vibrating tissue slicer (Leica VT1000; Bannockburn, Ill.). Slices were cut roughly perpendicular to the longitudinal axis of the hippocampus at a thickness of 350 μm. Slices were then immediately transferred to an interface recording chamber containing ACSF with the same constituents as described above except that the concentration of MgSO4 was lowered to 2.5 mM. Recording commenced after a recovery period that was ≧1 hour.
In vitro recording: Slices in the interface chamber were maintained at 32±1° C. and continuously perfused with oxygenated recording ACSF at a rate of 60 ml/hr. Additionally, warmed and humidified 95% O2/5% CO2 was blown into the chamber from above. The lateral perforant path was stimulated with twisted nichrome wire (65 μm) in the outer molecular layer of the dentate gyrus. A chloride-coated silver wire was placed in a single glass pipette filled with 2 M NaCl (˜5 MΩ resistance) for recording of field potentials. The recording electrode was also placed in the outer molecular layer of the dentate gyrus to sample the perforant path synapses. Stimulation intensity was adjusted to elicit responses that were typically 1-2 mV in amplitude and ≦50% of the maximal monophasic response. Evoked responses were recorded at 10 kHz using a differential AC amplifier (A-M Systems Model 1700; Carlsborg, Wash.). Baseline responses were monitored every 20 seconds for a minimum of 30 minutes, depending on the length of time necessary to achieve stability.
Drug application: AChE inhibitors enhance transmission at cholinergic synapses by blocking the enzyme that degrades the released transmitter acetylcholine. This causes acetylcholine to remain at relatively high concentrations for a longer period within the synapse and thereby exert a greater than normal effect on acetylcholine receptors. This greater than normal action on acetylcholine receptors can be partially mimicked by applying a compound that directly stimulates the receptors to a degree that is greater than that produced by normally released acetylcholine. […] The effect of each of these treatments on amplitude size and slope of the descending phase of the response waveform was continuously recorded online throughout the entirety of the experiment.

[2] = system: lateral olfactory tract (LOT) evoked responses; test: Lateral olfactory tract (LOT) evoked responses in awake rats; type: in vivo, Long-Evans rats
Description: (§1) Chronic recording preparation: Adult male Long-Evans rats with recording and stimulating electrodes chronically implanted into different areas of the brain known to subserve memory were used. The electrodes were stereotaxically inserted under pentobarbital anesthesia (65 mg/kg), using procedures essentially as described in earlier work (Stäubli and Xu, Journal of Neuroscience 15: 2445-2452, 1995; Stäubli and Scafidi, Journal of Neuroscience 17: 4820-4828, 1997). Briefly, monopolar stimulating electrodes (125 μm) were placed into the perforant path projections to hippocampal dentate gyrus and into the lateral olfactory tract projections to olfactory cortex. Following these steps, the leads of the electrodes were connected to a headstage that is permanently affixed to the rat's skull.
The animals were allowed approximately 10 days for recovery before being acclimated to a chronic recording cage (30×30×58 cm) and the attachment of a recording lead to their headstage. Biphasic stimulation pulses were provided by a digital stimulator that allows precise control of current intensity and pulse duration. Current intensity (10-80 μA) and pulse width (100-150 μsec) were adjusted to produce an evoked field excitatory postsynaptic potential (evoked fEPSP) that is 50-60% of the maximum amplitude of the population spike-free response which typically ranges between 3 and 7 mV. Recording signals were pre-amplified 10× via a FET operational amplifier built into the recording lead and fed into a second stage amplifier set to a gain of 10, with a band-pass of 1 Hz to 5 kHz. The evoked responses were monitored on a storage oscilloscope and digitized at 10 kHz. The peak amplitude, half-width and area of each response were measured on-line and stored on disk for off-line analysis. Baseline evoked EPSPs were tested at 20 sec intervals for a minimum of 30 to 45 min, or until stable (<10% variability in amplitude). The animal was free to move around the cage throughout the experiment, but was not allowed to fall asleep.
Drug Testing: Once baseline stability was established over at least 30 min, the animal was given an intraperitoneal injection of 1) Ampakine compound alone (e.g., CX717 at 10 mg/kg), or 2) acetylcholinesterase (AChE) inhibitor alone (e.g., physostigmine at 0.1 mg/kg, tacrin at 1 mg/kg, galantamine at 1 mg/kg or donezepil at 1.5 mg/kg) or 3) Ampakine compound plus AChE inhibitor combined, both administered at the same time and at the same dose as when given alone. Each rat received each of these three treatments, but only one treatment was given per day, with several days separating successive treatments. The effect of each of these treatments on amplitude size, halfwidth and area of the field EPSP was continuously recorded for several hours after injection.

[3] = system: monosynaptic responses (field EPSPs) known to be mediated by AMPA receptors; test: Chronic recording of evoked field EPSPs in freely moving rats (brain area not specified); type: in vivo, Long-Evans rats; settings: CX717 10 mg/kg ip alone
Description: as §1
(§2) The animals were allowed approximately 10 days for recovery before being acclimated to a chronic recording cage (30×30×58 cm) and the attachment of a recording lead to their headstage. Biphasic stimulation pulses were provided by a digital stimulator that allows precise control of current intensity and pulse duration. […] The evoked responses were monitored on a storage oscilloscope and digitized at 10 kHz. The peak amplitude, half-width and area of each response were measured on-line and stored on disk for off-line analysis. […]

[4] = system: perforant path evoked responses in the dentate gyrus; test: Perforant path evoked responses in the dentate gyrus of awake rats; type: in vivo, Long-Evans rats
Description: as §1, §2

[5] = CX717 10 mg/kg co-administered ip with physostigmine 0.1 mg/kg

SMILES	EPSP amplitude ([1]; CCh 0.5 μM alone, 20-30 minutes after the start of infusion)	effect on lateral perforant path EPSPs (amplitude or slope) ([1]; CCh 0.5 μM by itself)	response amplitude ([1]; CX717 40 μM alone, 30 min infusion, last 10 minutes of drug infusion)	increase in response size relative to CX717 alone ([1]; CX717 40 μM in the presence of 0.5 μM CCh)	LOT effect relative to CX717 alone [2, 5]	increase in LOT response amplitude above baseline [2, 5]	LOT effect relative to CX717 alone ([2]; CX717 10 mg/kg co-injected ip with Aricept 1.5 mg/kg)	LOT effect relative to CX717 alone ([2]; CX717 10 mg/kg co-injected ip with tacrine 1 mg/kg)	increase in LOT response amplitude ([2]; CX717 10 mg/kg ip alone, 10 mg/kg)	increase in amplitude of field EPSP [3]	perforant path effect relative to CX717 alone ([4]; CX717 10 mg/kg co-injected ip with physostigmine 0.1 mg/kg)	increase in perforant path evoked responses on co-administration ([4]; CX717 with galantamine 1 mg/kg, data not shown)
C[N+](C)(C)CCOC(N)=O [CCh, carbachol]	99.8±2.9 % of baseline	no discernible effects; also recorded: did not detectably affect synaptic transmission; also recorded: did not affect the amplitude or slope of evoked responses										
O=C(c1ccc2nonc2c1)N1CCOCC1 [CX717]			103.5±1.0 % of baseline	several fold greater; also recorded: significantly greater than those observed in the absence of CCh	several times greater than the effects it produced on its own; also recorded: approximately three-fold greater	20-30%	several times greater than the effects it produced on its own; also recorded: approximately two-fold greater	several times greater than the effects it produced on its own; also recorded: more than two times greater	~5% and < 10%	5+1%	significantly higher than the effects of CX717 alone	Effects of this kind were also obtained
